In patent US8603467B2 (priority 2007, dated 2013):

Key:
[1] = system: 8G9/HRP (binding to virus strain Ck/HK/Yu22/02)
[2] = system: 8G9 ascites (HI activity for Ck/HKYU22/02 virus); assay type: biochemical

## H T P C D T R D C V L R [G2]
[1]
  Competition with avian influenza virus for 8G9/HRP: had competition activity
[2]
  HI blocking effect: could clearly block
